Results: ChEMBL document CHEMBL1136037, “Novel benzthiodiazepinones as antiherpetic agents: SAR improvement of therapeutic index by alterations of the seven-membered ring” (Bioorg Med Chem Lett, 2002)

Assays:
[1] = system: Human alphaherpesvirus 1; assay: Inhibitory concentration against herpes simplex virus (HSV-1-lacZ) replication
[2] = Toxic concentration against uninfected cells and their ability to generate XTT formazan; type: ADME, cell-based; conditions: read-out: TC50 (the source's name)
[3] = Therapeutic index; conditions: read-out: Therapeutic index

Q: For COc1ccc2sc3c(c2c1)SCCNC3=O, which EC50 [1] is on record?
A: 125 nM

Q: And the CC50 [2]?
A: 7.6 µM

Q: And the selectivity ratio [3]?
A: 60

Q: With COc1ccc2sc3c(c2c1)N(Cc1ccc(C)cc1)CCNC3=O as the compound, how does the EC50 [1] read?
A: 30 nM

Q: What about the CC50 [2] of the same compound?
A: 11 µM

Q: What about the selectivity ratio [3] of the same compound?
A: 360

Q: Which results are given for COc1ccc2sc3c(c2c1)NC[C@@H](C(C)C)NC3=O?
A: EC50 [1]: 90 nM; CC50 [2]: 3.3 µM; selectivity ratio [3]: 37

Q: With COc1ccc2sc3c(c2c1)NC[C@H](C)NC3=O as the compound, how does the EC50 [1] read?
A: 170 nM

Q: And the CC50 [2]?
A: 6 µM

Q: What about the selectivity ratio [3] of the same compound?
A: 35

Q: What does the source list for COc1ccc2sc3c(c2c1)N(C)CCNC3=O?
A: EC50 [1]: 440 nM; CC50 [2]: 12.5 µM; selectivity ratio [3]: 28

Q: For COc1ccc2sc3c(c2c1)NC[C@H](CC(C)C)NC3=O, which EC50 [1] is on record?
A: 20 nM

Q: What about the CC50 [2] of the same compound?
A: 2 µM

Q: What about the selectivity ratio [3] of the same compound?
A: 100

Q: For COc1ccc2sc3c(c2c1)N(Cc1cccc(C)c1)CCNC3=O, which EC50 [1] is on record?
A: 5 nM

Q: What about the CC50 [2] of the same compound?
A: 12 µM

Q: And the selectivity ratio [3]?
A: 2400

Q: Which results are given for COc1cccc(CN2C[C@H](C)NC(=O)c3sc4ccc(OC)cc4c32)c1?
A: EC50 [1]: 20 nM; CC50 [2]: 11 µM; selectivity ratio [3]: 550

Q: With COc1ccc2sc3c(c2c1)N[C@@H](C)CNC3=O as the compound, how does the EC50 [1] read?
A: 50 nM

Q: And the CC50 [2]?
A: 2 µM

Q: And the selectivity ratio [3]?
A: 40

Q: What does the source list for COc1ccc2sc3c(c2c1)N[C@H](Cc1ccccc1)CNC3=O?
A: EC50 [1]: 90 nM; CC50 [2]: 1.4 µM; selectivity ratio [3]: 16

Q: Which EC50 [1] does the source give for COc1ccc2sc3c(c2c1)N(Cc1ccccc1C)CCNC3=O here?
A: 21 nM

Q: And the CC50 [2]?
A: 25 µM

Q: And the selectivity ratio [3]?
A: 1200

Q: Which results are given for COc1ccc2sc3c(c2c1)NC[C@H](Cc1ccccc1)NC3=O?
A: EC50 [1]: 280 nM; CC50 [2]: 1.9 µM; selectivity ratio [3]: 7

Q: Which EC50 [1] does the source give for COc1ccc2sc3c(c2c1)N[C@@H](Cc1ccccc1)CNC3=O here?
A: 10 nM

Q: What about the CC50 [2] of the same compound?
A: 1.1 µM

Q: What about the selectivity ratio [3] of the same compound?
A: 110

Q: Which EC50 [1] does the source give for COc1ccc2sc3c(c2c1)N(Cc1cccc(Cl)c1)CCNC3=O here?
A: 5 nM

Q: And the CC50 [2]?
A: 20 µM

Q: What about the selectivity ratio [3] of the same compound?
A: 4000

Q: Which EC50 [1] does the source give for COc1ccc2sc3c(c2c1)NC[C@H](C(C)C)NC3=O here?
A: 60 nM

Q: What about the CC50 [2] of the same compound?
A: 4 µM

Q: What about the selectivity ratio [3] of the same compound?
A: 67

Q: For COc1ccc2sc3c(c2c1)OCCNC3=O, which EC50 [1] is on record?
A: 210 nM

Q: What about the CC50 [2] of the same compound?
A: 13.1 µM

Q: And the selectivity ratio [3]?
A: 60

Q: For COc1cccc(CN2C[C@@H](C)NC(=O)c3sc4ccc(OC)cc4c32)c1, which EC50 [1] is on record?
A: 30 nM

Q: What about the CC50 [2] of the same compound?
A: 3.4 µM

Q: What about the selectivity ratio [3] of the same compound?
A: 170

Q: With COc1cccc(CN2CCNC(=O)c3sc4ccc(OC)cc4c32)c1 as the compound, how does the EC50 [1] read?
A: 0.4 nM

Q: And the CC50 [2]?
A: 10 µM

Q: And the selectivity ratio [3]?
A: 25000

Q: For COc1ccc2sc3c(c2c1)NC[C@@H](C)NC3=O, which EC50 [1] is on record?
A: 20 nM

Q: What about the CC50 [2] of the same compound?
A: 1 µM

Q: And the selectivity ratio [3]?
A: 50

Q: What does the source list for COc1cccc(CN2C[C@H](Cc3ccccc3)NC(=O)c3sc4ccc(OC)cc4c32)c1?
A: EC50 [1]: 90 nM; CC50 [2]: 6 µM; selectivity ratio [3]: 67

Q: Which results are given for COc1ccc2sc3c(c2c1)N[C@H](C)CNC3=O?
A: EC50 [1]: 130 nM; CC50 [2]: 7 µM; selectivity ratio [3]: 54

Q: What does the source list for COc1ccc2sc3c(c2c1)N(Cc1ccc(Cl)cc1)CCNC3=O?
A: EC50 [1]: 40 nM; CC50 [2]: 12 µM; selectivity ratio [3]: 300

Q: For COc1ccc2sc3c(c2c1)NCCNC3=O, which EC50 [1] is on record?
A: 130 nM

Q: And the CC50 [2]?
A: 4.5 µM

Q: And the selectivity ratio [3]?
A: 35

Q: With COc1ccc(CN2CCNC(=O)c3sc4ccc(OC)cc4c32)cc1 as the compound, how does the EC50 [1] read?
A: 12 nM

Q: And the CC50 [2]?
A: 10 µM

Q: And the selectivity ratio [3]?
A: 830

Q: Which EC50 [1] does the source give for COc1ccc2sc3c(c2c1)N(Cc1ccccc1Cl)CCNC3=O here?
A: 8 nM

Q: And the CC50 [2]?
A: 12 µM

Q: What about the selectivity ratio [3] of the same compound?
A: 1500

Q: With COc1cccc(CN2C[C@@H](Cc3ccccc3)NC(=O)c3sc4ccc(OC)cc4c32)c1 as the compound, how does the EC50 [1] read?
A: 450 nM

Q: And the CC50 [2]?
A: 4 µM

Q: And the selectivity ratio [3]?
A: 9

Q: Which EC50 [1] does the source give for COc1ccc2sc3c(c2c1)[S+]([O-])CCNC3=O (centres undefined) here?
A: 2550 nM

Q: What about the CC50 [2] of the same compound?
A: 25.8 µM

Q: And the selectivity ratio [3]?
A: 10

Q: Which EC50 [1] does the source give for COc1ccc2sc3c(c2c1)N(Cc1ccc([N+](=O)[O-])cc1)CCNC3=O here?
A: 50 nM

Q: What about the CC50 [2] of the same compound?
A: 25 µM

Q: And the selectivity ratio [3]?
A: 500

Q: Which results are given for COc1ccc2sc3c(c2c1)N(Cc1cccc([N+](=O)[O-])c1)CCNC3=O?
A: EC50 [1]: 4 nM; CC50 [2]: 25 µM; selectivity ratio [3]: 6250

Q: With COc1ccc2sc3c(c2c1)N(Cc1ccccc1)CCNC3=O as the compound, how does the EC50 [1] read?
A: 5 nM

Q: And the CC50 [2]?
A: 8 µM

Q: And the selectivity ratio [3]?
A: 1600

Q: Which EC50 [1] does the source give for COc1ccc2sc3c(c2c1)NC[C@@H](Cc1ccccc1)NC3=O here?
A: 340 nM

Q: What about the CC50 [2] of the same compound?
A: 10 µM

Q: And the selectivity ratio [3]?
A: 29

Q: For C=CCN1CCNC(=O)c2sc3ccc(OC)cc3c21, which EC50 [1] is on record?
A: 1 nM

Q: And the CC50 [2]?
A: 1.75 µM

Q: What about the selectivity ratio [3] of the same compound?
A: 1750

Q: For COc1ccc2sc3c(c2c1)NC[C@@H](CC(C)C)NC3=O, which EC50 [1] is on record?
A: 390 nM

Q: What about the CC50 [2] of the same compound?
A: 7 µM

Q: What about the selectivity ratio [3] of the same compound?
A: 18
